Source: PMC6615598, “Novel antibiotics effective against gram-positive and -negative multi-resistant bacteria with limited resistance” (PLoS Biology, 2019)
Starred links: 1 amine or outer side, 2 acyl side, 3 side chain; linkers in the order of their positions; H or OH if unused. Non-standard residues stand in square brackets, D forms with d. Residues, ends and D or L forms follow the SMILES beside them. azaβ3(1Nal) = O=C(CN(Cc1cccc2ccccc12)N[*:1])[*:2]

Key:
[1] = tested on: S. aureus 66534 E; assay: microbe, parasite or virus in culture
Method: (§1) (10−4 M final concentrations). At selected time intervals, 100 μl of reaction mixture was collected, quenched by 200 μl 95% EtOH, and adjusted at pH 2 to prevent peptide adsorption to serum proteins. […] Supernatants were analyzed by RP-HPLC on an Xbridge C18 column with a linear gradient of water, 0.08% TFA, and acetonitrile with 1% TFA. HPLC peak areas were used to calculate the percentages of intact compound remaining at the various time points. MIC and MBC values were determined in triplicate in many ESKAPE clinical isolates, including a dozen MDR S. aureus, by the broth microdilution method. Peptidomimetics and antibiotics were assayed in a concentration range of 1 to 128 μM. The bacterial inoculum (5 × 10^5 colony-forming units [CFUs]/well) was prepared in MHB or CAMHB (150 μl). A Biotek Synergy 2 spectrophotometer was used to record the results after 18–20 h incubation at 35°C (±2°C). […] After every hour of culture for 4 h, serial dilutions were plated on BHI plates and incubated overnight at 37°C, and then the CFUs were counted and expressed as log CFU/ml. Phosphate-buffered saline (PBS)-exposed S. aureus MRSA was included as a control.
(§2) Supplementary file pbio.3000337.s007.docx: S1 Table Antibacterial activity of the 4 peptidomimetics focusing on 9 S. aureus MDR clinical isolates. Clinical isolates BCB/POE and 740404 DUN are from human sepsis. The other strains are from catheter infections or suppurating wounds. Brilacidin was used as a control. MDR, multidrug resistant. (DOCX) Click here for additional data file.

[2] = tested on: S. aureus 702697 HOU; assay: microbe, parasite or virus in culture
Method: as §1, §2

[3] = tested on: S. aureus 740404 DUN; assay: microbe, parasite or virus in culture
Method: as §1, §2

[4] = tested on: S. aureus BCB/POE; assay: microbe, parasite or virus in culture
Method: as §1, §2

[5] = tested on: S. aureus COB; assay: microbe, parasite or virus in culture
Method: as §1, §2

[6] = tested on: S. aureus FORT; assay: microbe, parasite or virus in culture
Method: as §1, §2

[7] = tested on: S. aureus PM64; assay: microbe, parasite or virus in culture
Method: as §1, §2

[8] = tested on: S. aureus ROUS; assay: microbe, parasite or virus in culture
Method: as §1, §2

[9] = tested on: E. coli 13090; assay: microbe, parasite or virus in culture
Method: (§3) For 15 d in MHB, MICs were determined daily for each pseudopeptide and their antibiotic controls. This was done using cells from the well in which the compound concentration was one-half of the MIC (1/2MIC). For each compound, the 1/2MIC well from the previous day’s MIC assay plate was re-suspended and the bacteria grown to a density of about 10^8 cells ml−1. The suspension was diluted in MHB or CAMHB (10^6 cells/ml) and then used to determine the MIC of the same compound determined by micro broth dilution. All MIC measurements were performed in duplicate. Aliquots of the 5 × 10^4 cell/ml dilutions for each 1/2MIC well were periodically plated on MHB and incubated at 35°C for 18 h to verify cell density by colony counts and for visual inspection of colony phenotypes. To control compound stability, peptide solution MICs were determined during and at the end of the 15 d and were compared to cells unexposed to antibiotics. In vivo resistance was also assessed in treated mice (1.5 mg.kg^−1) for 4 d (sepsis) or 6 d (skin abscesses). […] The broth microdilution method was performed as per EUCAST recommendations on 5 independent colonies per mouse (3 mice per set, 15 colonies per drug tested). For severe sepsis and subcutaneous abscesses, in vivo resistance was determined by plating aliquots of crude kidney extracts or abscesses on plates containing 1-, 2-, 4-, or 8-fold the peptide MICs 7 or 3 d post infections, respectively.

[10] = tested on: E. coli K12; assay: microbe, parasite or virus in culture
Method: as §3

[11] = tested on: E. coli MCR1; assay: microbe, parasite or virus in culture
Method: as §3

[12] = tested on: MRSA (Mu3); assay: microbe, parasite or virus in culture; settings: MRSA (Mu3)
Method: as §3

[13] = tested on: MSSA (Newman); assay: microbe, parasite or virus in culture; settings: MSSA (Newman)
Method: as §3

[14] = tested on: P. aeruginosa 15643; assay: microbe, parasite or virus in culture
Method: as §3

[15] = Stability in mouse serum (half-life); type: in vitro ADME; settings: 25% mouse serum, pre-incubated 15 min at 37°C, peptide 10^−4 M, RP-HPLC peak areas, mean of biological triplicates
Method: as §1
Supplementary file pbio.3000337.s013.docx: S7 Table Peptide half-lives in human and mouse sera. […] Peptide amounts and half-lives were determined by HPLC. Experiments were conducted on 25% human or mouse sera. Values are shown in minutes. The mean values correspond to biological triplicates. HPLC, high pressure liquid chromatography. (DOCX) Click here for additional data file.

[16] = E. coli 13090, d0 of serial passages
[17] = E. coli 13090, d14 of serial passages at sub-MIC
[18] = E. coli K12, d0 of serial passages
[19] = E. coli K12, d14 of serial passages at sub-MIC
[20] = E. coli MCR1, d0 of serial passages
[21] = E. coli MCR1, d14 of serial passages at sub-MIC
[22] = d14 of serial passages at sub-MIC
[23] = P. aeruginosa 15643, d0 of serial passages
[24] = P. aeruginosa 15643, d14 of serial passages at sub-MIC

Row | SMILES | MIC [9, 16] | MIC [9, 17] | MIC [10, 18] | MIC [10, 19] | MIC [11, 20] | MIC [11, 21] | MIC [12, 22] | MIC ([13]; d0 of serial passages) | MIC [13, 22] | MIC [14, 23] | MIC [14, 24] | half-life [15] | further results
1 | CC(C)[C@@H]1NC(=O)[C@H](CCCNC(=N)N)NC(=O)[C@H](CCCNC(=N)N)NC(=O)[C@H](Cc2c[nH]c3ccccc23)NC(=O)[C@H](Cc2ccccc2)NC(=O)[C@H](Cc2ccccc2)NC(=O)[C@H](CCCCN)NC1=O [Pep18] (cyclo(FFWRRVK)) | 16 (16.4) μM | 64 (65.6) μM | 16 (16.4) μM | 64 (65.6) μM | 16 (16.4) μM | 64 (65.6) μM | 16 (16.4) μM | 16 (16.4) μM | 64 (65.6) μM | 16 (16.4) μM | 16 (16.4) μM | 8.5 ± 2.5 h | MIC ([1]; MDR S. aureus clinical isolate 66534 E): 32 mg/L^-1; MIC ([2]; MDR S. aureus clinical isolate 702697 HOU): 16 mg/L^-1; MIC ([3]; MDR S. aureus clinical isolate 740404 DUN, human sepsis): 32 mg/L^-1; MIC ([4]; MDR S. aureus clinical isolate BCB/POE, human sepsis): 32 mg/L^-1; MIC ([5]; MDR S. aureus clinical isolate COB): 32 mg/L^-1; MIC ([6]; MDR S. aureus clinical isolate FORT): >32 mg/L^-1; MIC ([7]; MDR S. aureus clinical isolate PM64): 32 mg/L^-1; MIC ([8]; MDR S. aureus clinical isolate ROUS): 8 mg/L^-1
2 | CC(C)[C@@H]1NC(=O)[C@H](CCCNC(=N)N)NC(=O)[C@H](CCCNC(=N)N)NC(=O)CN(Cc2cccc3ccccc23)NC(=O)[C@H](Cc2ccccc2)NC(=O)CN(Cc2cccc3ccccc23)NC(=O)[C@H](CCCCN)NC1=O [Pep19] (cyclo([azaβ3(1Nal)]F[azaβ3(1Nal)]RRVK)) | 8 (8.8) μM | 8 (8.8) μM | 4 (4.4) μM | 8 (8.8) μM | 8 (8.8) μM | 8 (8.8) μM | 8 (8.8) μM | 4 (4.4) μM | 4 (4.4) μM | 8 (8.8) μM | 16 (16.2) μM | 9 ± 1.75 h | MIC ([1]; 66534 E): 2 mg/L^-1; MIC ([2]; 702697 HOU): 4 mg/L^-1; MIC ([3]; 740404 DUN): 8 mg/L^-1; MIC ([4]; BCB/POE): 8 mg/L^-1; MIC ([5]; COB): 2 mg/L^-1; MIC ([6]; FORT): 8 mg/L^-1; MIC ([7]; PM64): 8 mg/L^-1; MIC ([8]; ROUS): 2 mg/L^-1; MIC ([12]; d0 of serial passages): 4 (4.4) μM
